The values that follow come from patent US11484484B2, “Composition for alleviating skin barrier dysfunction” (LG HOUSEHOLD & HEALTH CARE LTD., priority 2018, dated 2022).

Entries after “also recorded” stand apart in the source; their conditions may differ.

Series [1] has as its system AKT-mTOR-S6 pathway. Nature of the series: Phosphorylation of AKT-mTOR-S6 pathway by western blotting. It is filed as cell-based, human. The following applies: HaCaT cells. From the text:
(§1) HaCaT cells were inoculated into a 60 mm plate at a concentration of 8×10^5 cells and independently treated with hydroxycinnamic acid, isoamyl acetate, and betaine the next day, and then the cells were eluted with a 5× lysis buffer to obtain proteins. Cell debris was removed by centrifugation and quantified using a BCA protein assay kit (Pierce, USA). The cell-extracted proteins were isolated using a 4%-15% SDS-PAGE gel (Bio-Rad, USA) and transferred to a nitrocellulose membrane (Life Technologies, New Zealand). The cells were then blocked with a TBST buffer containing 3% BSA for 1 hour and thereupon reacted in a buffer solution containing primary antibodies at 4° C. for 1 day. The membrane was washed with TBST, reacted with peroxidase-conjugated secondary antibodies, and then colored using enhanced chemiluminescence (Amersham, UK), and the immune-reactive bands were confirmed with the Fusion FX 5 image system (Vilber Lourmat, France).
In previous studies, betaine—homocysteine methyltransferase (BHMT) has been reported to reduce the amount of homocysteine in a betaine-dependent manner. In one study, homocysteine was reported to promote the activity of mTORC1, an enzyme that inhibits autophagy. Thus, in order to find a mechanism by which autophagy is promoted by betaine, an experiment was conducted to identify related upstream signaling factors. […]
(In general: Immunoblotting shows a protein as a band on a membrane.)

In series [2] the test system is reconstructed human epidermis model (Neoderm-E). Nature of the series: LC3-II production in 3D artificial skin model. In kind it is cell-based. The following applies: 1% cream formulation, after 24 hours. As to the method: (§2) A reconstructed human epidermis model (Neoderm-E, Tego Science, Korea) was transferred to a 6-well plate and stabilized in 2 mL of a growth medium (Tego Science, Korea) for 24 hours, and the cream-type hydroxycinnamic acid, isoamyl acetate, and betaine were applied to the artificial skin at each concentration. After culturing for 24 hours, the hydroxycinnamic acid, isoamyl acetate, and betaine cream applied on the artificial skin were washed with phosphate buffer saline (PBS), and then the tissue was disrupted using a RIPA buffer (50 mM Tris-HCl, pH 7.4, 150 mM NaCl, 1% NP-40) containing Protease Inhibitor Cocktails (ThermoFisher Scientific, USA) by sonication. The tissue-extracted proteins were analyzed for the autophagic activity of keratinocytes in the tissue by western blotting analysis. 1% creams of hydroxycinnamic acid, isoamyl acetate, and betaine were applied on the artificial skin, followed by H&E staining after 1 week to confirm the increase in thickness of the epidermis.
In order to confirm whether the differentiation in the epidermis is promoted by the effect of promoting autophagy by way of betaine, hydroxycinnamic acid, and isoamyl acetate, a 3D artificial skin model was used as in Example 5. […] After 24 hours, the degree of LC3-II production was measured through western blotting analysis to determine whether autophagy in the epidermis was promoted.

Series [3] concerns LC3-II. Description: LC3-II production by western blotting in keratinocytes. It is filed as cell-based, human. The conditions noted are these: HaCaT cells.
Source text: as §1
The cytotoxicity of betaine on keratinocytes was confirmed, and the results of Experimental Example 1 were confirmed by the western blotting analysis of Example 4 to determine the degree of production of LC3-II converted as it entered into the double membranes of the autophagosomes. […] Additionally, the cells were treated with 50 μg/mL betaine and the amount of LC3-II conversion per hour was observed.

The test system of series [4] is reconstructed human epidermis model (Neoderm-E). Description: Epidermal thickness in 3D artificial skin model. It is filed as cell-based. The following applies: 1% cream formulation; for Increase relative to Control: epidermal thickness ratio. As to the method:
as §2
Next, the cream formulations of 1% betaine, 1% hydroxycinnamic acid, and 1% isoamyl acetate were applied to the artificial skin, and changes in the thickness of the epidermis were measured after […] staining of the artificial skin tissue.

Series [5] relates to HaCaT cells. In kind it is cell-based. The following applies: 10 μg/mL, 50 μg/mL and 100 μg/mL.
The subject of series [6] is LC3-II, p62/SQSTM1. Nature of the series: Autophagosome synthesis mechanism: co-treatment with bafilomycin A1, LC3-II and p62 western blotting. In kind it is cell-based, human.
Source text: as §1
Therefore, in order to investigate a mechanism by which the autophagosomes are increased by way of betaine treatment, the cells were treated with bafilomycin A1 (Baf. A1), which is known as a lysosomal activity inhibitor, together with betaine, and the degree of LC3-II production was confirmed by western blotting analysis.

For series [7], the system named is HaCaT cells introduced with the GFP-LC3 vector. Description: Screening for autophagy activation: GFP-LC3 puncta quantification. The conditions noted are these: for proportion of cells with increased GFP-LC3 puncta vesicles: fluorescence microscopy. It is filed as cell-based, human. As to the method:
A GFP (green fluorescence protein)-conjugated microtubule-binding protein 1 light chain 3 (LC3) expression vector (Cell Biolabs, USA) was introduced into HaCaT cells using Lipofectamine 2000 (Invitrogen, USA), which is a gene transfer reagent, and the resultant was cultured for 12 hours in a condition containing 10% FBS and then treated with candidate compounds expected to promote autophagy, which was selected from a library of single compounds derived from natural substances, at each concentration in the medium. Subsequently, the evaluation was performed by fluorescence microscopy (Leica Microsystems, USA). In order to quantify the induction of autophagy, 100 GFP-positive cells in which puncta autophagosomes were formed (punctae=5) were counted using fluorescence microscopy. In order to improve the barrier function by promoting epidermal differentiation through the activation of autophagy, which is reduced due to aging or external stimuli, a search was conducted starting from a library of single compounds derived from natural substances for those that promote autophagic activity of keratinocytes. Specifically, as in the method of Example 3, candidate compounds expected to promote autophagy were treated to HaCaT cells introduced with the GFP-LC3 vector. Thereafter, the number of cells with increased GFP-LC3 puncta vesicles in the cytoplasm was increased as GFP was conjugated to LC3, which was converted into a membrane-bound form when autophagy was induced in each cell, was compared.

The conditions of series [8]: general description of the substance; cited from earlier work.

Turning to `C[N+](C)(C)CC(=O)[O-]` [betaine, trimethylglycine], the “mTOR signals (degree of phosphorylation of the AKT-mTOR-S6 pathway)” value in series [1] is listed as “not possible to observe a significant difference; also recorded: no significant difference”. Besides, the “autophagy (degree of LC3-II production) in the epidermis” value in series [2] is reported as “autophagy was increased”. The “amount of LC3-II conversion, from 12 hours” value in series [3] (50 μg/mL, 12 hours) is given as “the amount of conversion increased”. Also, in series [3] (50 μg/mL, 24 hours), the “amount of LC3-II conversion, after 24 hours” value is “the highest conversion was observed; also recorded: conversion mostly occurred”. For the same compound, in series [3] (50 μg/mL, until 6 hours), the “amount of LC3-II conversion, until 6 hours” value was “a significant increase was not observed”. The “amount of LC3-II by concentration” value in series [3] (10, 50, 100 μg/mL, western blotting) is recorded as “increased as the concentration increased”. Further, in series [4], the “Thickness of Epidermis” value is on record as 74 μm, the “epidermal thickness increase compared to the control group” value turned out to be 19% and the “Increase relative to Control” value was 1.19. Further, the cytotoxicity result in series [5] is “no cytotoxicity was observed”. Further, the “amount of p62/SQSTM1 (p62) protein” value in series [6] (betaine treatment, western blotting) was “reduced; also recorded: decrease”. Further, the “amount of LC3-II with bafilomycin A1 together with betaine compared to betaine alone” value in series [6] (co-treatment with lysosomal activity inhibitor bafilomycin A1) was “further increased”. In series [7], the “number of cells with increased GFP-LC3 puncta vesicles, increase compared to the untreated group” value is 18.75% and the “proportion of cells with increased GFP-LC3 puncta vesicles” value is listed as 25%.
For the compound `CC(=O)OCCC(C)C` [isoamyl acetate], the “autophagy (degree of LC3-II production) in the epidermis” value in series [2] is “autophagy was increased”. Also, in series [4], the “Thickness of Epidermis” value was 85 μm, the “epidermal thickness increase compared to the control group” value was found to be 37% and the “Increase relative to Control” value turned out to be 1.37. In addition, in series [8], the solubility result was “not well soluble in water, but soluble in alcohol and organic solvents”. The “proportion of cells with increased GFP-LC3 puncta vesicles” value in series [7] amounted to 16.4%.
